# PubChem BioAssay (NCI)
#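 At the GI50, growth is halved. TGI is the concentration that stops growth completely.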
# What was measured:
# Experiment in all cases: NCI tumour cell line growth inhibition, 384-well format
# ACHN renal = test system: ACHN renal
# EKVX NSCLC = test system: EKVX NSCLC
# HCC-2998 colon = test system: HCC-2998 colon
# HOP-92 NSCLC = test system: HOP-92 NSCLC
# HS 578T breast = test system: HS 578T breast
# HT29 colon = test system: HT29 colon
# KM12 colon = test system: KM12 colon
# M14 melanoma = test system: M14 melanoma
# MDA-MB-468 breast = test system: MDA-MB-468 breast
# NCI-H23 lung = test system: NCI-H23 lung
# OVCAR-3 ovarian = test system: OVCAR-3 ovarian
# SF-268 CNS = test system: SF-268 CNS
# SK-OV-3 ovarian = test system: SK-OV-3 ovarian
structure (smiles),measurement,setting,value
N=C(N)c1ccc2nc(-c3cc(CC(=O)N[C@@H](CC(=O)O)C(=O)O)cc(-c4cc(S(N)(=O)=O)ccc4O)c3O)[nH]c2c1,GI50,ACHN renal,> 100 µM
same,TGI,ACHN renal,> 100 µM
same,GI50,EKVX NSCLC,> 100 µM
same,TGI,EKVX NSCLC,> 100 µM
same,GI50,HCC-2998 colon,> 100 µM
same,TGI,HCC-2998 colon,> 100 µM
same,GI50,HOP-92 NSCLC,> 100 µM
same,TGI,HOP-92 NSCLC,> 100 µM
same,GI50,HS 578T breast,> 100 µM
same,TGI,HS 578T breast,> 100 µM
same,GI50,HT29 colon,> 100 µM
same,TGI,HT29 colon,> 100 µM
same,GI50,KM12 colon,> 100 µM
same,TGI,KM12 colon,> 100 µM
same,GI50,M14 melanoma,> 100 µM
same,TGI,M14 melanoma,> 100 µM
same,GI50,MDA-MB-468 breast,> 100 µM
same,TGI,MDA-MB-468 breast,> 100 µM
same,GI50,NCI-H23 lung,> 100 µM
same,TGI,NCI-H23 lung,> 100 µM
same,GI50,OVCAR-3 ovarian,> 100 µM
same,TGI,OVCAR-3 ovarian,> 100 µM
same,GI50,SF-268 CNS,> 100 µM
same,TGI,SF-268 CNS,> 100 µM
same,GI50,SK-OV-3 ovarian,> 100 µM
same,TGI,SK-OV-3 ovarian,> 100 µM
